Assay results from the NIST ThermoML archive (doi:10.1016/j.jct.2018.03.013).

Assay: xn = mol fraction of the nth substance listed
Details: 100 kPa, Liquid; for speed of sound: Frequency=3 MHz, Linear variable-path acoustic interferometer; for mass density: Pycnometric method

C=C(C)C(=O)OC [methyl methacrylate] + CC#N
Details | mass density [kg/m3] | speed of sound [m/s]
293.15 K, x2 = 0 | 943.38 | 1200.5
293.15 K, x2 = 0.0688 | 938.34 | 1207.5
293.15 K, x2 = 0.1376 | 932.76 | 1214.3
293.15 K, x2 = 0.1957 | 927.6 | 1220
293.15 K, x2 = 0.2716 | 920.18 | 1227.3
293.15 K, x2 = 0.3344 | 913.41 | 1233.2
293.15 K, x2 = 0.4135 | 903.99 | 1240.5
293.15 K, x2 = 0.4916 | 893.58 | 1247.5
293.15 K, x2 = 0.5649 | 882.66 | 1254.2
293.15 K, x2 = 0.6386 | 870.38 | 1261
293.15 K, x2 = 0.7084 | 857.36 | 1267.7
293.15 K, x2 = 0.7927 | 839.5 | 1276.4
293.15 K, x2 = 0.855 | 824.53 | 1283.5
293.15 K, x2 = 0.9073 | 810.58 | 1290.3
293.15 K, x2 = 0.9497 | 798.21 | 1296.3
298.15 K, x2 = 0 | 937.64 | 1183.6
298.15 K, x2 = 0.0688 | 932.64 | 1190.6
298.15 K, x2 = 0.1376 | 927.09 | 1197.2
298.15 K, x2 = 0.1957 | 921.95 | 1202.7
298.15 K, x2 = 0.2716 | 914.56 | 1209.7
298.15 K, x2 = 0.3344 | 907.81 | 1215.3
298.15 K, x2 = 0.4135 | 898.42 | 1222.3
298.15 K, x2 = 0.4916 | 888.04 | 1229
298.15 K, x2 = 0.5649 | 877.15 | 1235.3
298.15 K, x2 = 0.6386 | 864.91 | 1241.7
298.15 K, x2 = 0.7084 | 851.92 | 1248
298.15 K, x2 = 0.7927 | 834.09 | 1256.2
298.15 K, x2 = 0.855 | 819.15 | 1263
298.15 K, x2 = 0.9073 | 805.23 | 1269.3
298.15 K, x2 = 0.9497 | 792.88 | 1275
303.15 K, x2 = 0 | 931.9 | 1168.5
303.15 K, x2 = 0.0688 | 926.94 | 1175.5
303.15 K, x2 = 0.1376 | 921.42 | 1182
303.15 K, x2 = 0.1957 | 916.3 | 1187.4
303.15 K, x2 = 0.2716 | 908.94 | 1194.1
303.15 K, x2 = 0.3344 | 902.21 | 1199.5
303.15 K, x2 = 0.4135 | 892.85 | 1206.2
303.15 K, x2 = 0.4916 | 882.5 | 1212.6
303.15 K, x2 = 0.5649 | 871.64 | 1218.6
303.15 K, x2 = 0.6386 | 859.43 | 1224.8
303.15 K, x2 = 0.7084 | 846.47 | 1230.8
303.15 K, x2 = 0.7927 | 828.68 | 1238.7
303.15 K, x2 = 0.855 | 813.77 | 1245.1
303.15 K, x2 = 0.9073 | 799.87 | 1251.2
303.15 K, x2 = 0.9497 | 787.55 | 1256.6
308.15 K, x2 = 0 | 926.16 | 1152.6
308.15 K, x2 = 0.0688 | 921.23 | 1159.6
308.15 K, x2 = 0.1376 | 915.74 | 1166
308.15 K, x2 = 0.1957 | 910.65 | 1171.2
308.15 K, x2 = 0.2716 | 903.31 | 1177.8
308.15 K, x2 = 0.3344 | 896.61 | 1183
308.15 K, x2 = 0.4135 | 887.27 | 1189.5
308.15 K, x2 = 0.4916 | 876.95 | 1195.7
308.15 K, x2 = 0.5649 | 866.13 | 1201.5
308.15 K, x2 = 0.6386 | 853.94 | 1207.4
308.15 K, x2 = 0.7084 | 841.01 | 1213.2
308.15 K, x2 = 0.7927 | 823.27 | 1220.8
308.15 K, x2 = 0.855 | 808.39 | 1227.1
308.15 K, x2 = 0.9073 | 794.51 | 1233
308.15 K, x2 = 0.9497 | 782.21 | 1238.2
313.15 K, x2 = 0 | 920.42 | 1135.4
313.15 K, x2 = 0.0688 | 915.52 | 1142.4
313.15 K, x2 = 0.1376 | 910.06 | 1148.7
313.15 K, x2 = 0.1957 | 904.99 | 1153.9
313.15 K, x2 = 0.2716 | 897.68 | 1160.3
313.15 K, x2 = 0.3344 | 891 | 1165.6
313.15 K, x2 = 0.4135 | 881.69 | 1172
313.15 K, x2 = 0.4916 | 871.4 | 1178.1
313.15 K, x2 = 0.5649 | 860.61 | 1183.8
313.15 K, x2 = 0.6386 | 848.45 | 1189.5
313.15 K, x2 = 0.7084 | 835.55 | 1195.2
313.15 K, x2 = 0.7927 | 817.85 | 1202.7
313.15 K, x2 = 0.855 | 803 | 1208.9
313.15 K, x2 = 0.9073 | 789.15 | 1214.7
313.15 K, x2 = 0.9497 | 776.87 | 1219.8
318.15 K, x2 = 0 | 914.67 | 1118.3
318.15 K, x2 = 0.0688 | 909.81 | 1125.1
318.15 K, x2 = 0.1376 | 904.38 | 1131.5
318.15 K, x2 = 0.1957 | 899.33 | 1136.6
318.15 K, x2 = 0.2716 | 892.05 | 1143.1
318.15 K, x2 = 0.3344 | 885.39 | 1148.2
318.15 K, x2 = 0.4135 | 876.11 | 1154.5
318.15 K, x2 = 0.4916 | 865.85 | 1160.5
318.15 K, x2 = 0.5649 | 855.09 | 1166.1
318.15 K, x2 = 0.6386 | 842.96 | 1171.8
318.15 K, x2 = 0.7084 | 830.09 | 1177.3
318.15 K, x2 = 0.7927 | 812.43 | 1184.6
318.15 K, x2 = 0.855 | 797.61 | 1190.7
318.15 K, x2 = 0.9073 | 783.79 | 1196.3
318.15 K, x2 = 0.9497 | 771.53 | 1201.4
